Data on 2 compounds can be found in patent US10851348B2, “Proliferative primary human Sertoli cell cultures and their applications” (Mandalmed, Inc., priority 2006, dated 2020).

Series [1] has as its system human Sertoli cells (MM-HSe-2305 cells). Put plainly: BrdU proliferation of human Sertoli cells in response to FSH treatment. The series is classed as cell-based. To be noted: 200-ng/ml FSH for 1 week; >50 fields; p<0.001 vs without FSH. The procedure:
It has been reported that cultured rat Sertoli cells, proliferate in response to recombinant FSH (Buzzard, Wreford et al. 2002). We determined the response of the human cells to FSH treatment to provide further evidence that they are Sertoli cells. The human Sertoli cells (MM-HSe-2305 cells; 7,000 per well) were placed in 8-well chamber slides and incubated with control media or with media containing 200-ng/ml FSH (Sigma-Aldrich) for 1 week. Then the cells were labeled with BrdU that is incorporated into nuclei during DNA synthesis prior to mitosis. The slides were stained with anti-BrdU antibody (finally stained by Texas red) followed by staining with an antibody to FSHr (finally with FITC), and nuclei marked by bisbenzamide.
Briefly, the MM-HSE-2305 cells were labeled with BrdU (Roche; 100 μM) at 37° C./[…] for 2 hours then washed three times with PBS followed by fixing with 4% PFA for 30 min. […] Fluorescence was enhanced by incubating with ABC solution (Vector laboratories) for 30 min. Immunoreactivity was visualized by fluorescence microscopy using avidin-conjugated Texas red (1:200 in PBS) for 1 hour.
Photomicrographs were taken with different filters of the same field. The percentage of proliferating Sertoli cells was determined by the counting the number of FSHr, BrdU double positive cells and dividing this by the total number of cells per field. […]

A further series has as its system rat Sertoli cell TJs. To be noted: cited from earlier work.

On to follicle stimulating hormone [FSH], for which the “percent of cells undergoing proliferation (FSHr, BrdU double positive cells / total cells)” value in series [1] was found to be 12.35%. Consider `[Cl][Cd][Cl]` [Cadmium chloride, cadmium chloride], for which, in the series with rat Sertoli cell TJs (effect lasted for a number of days), the “effect on permeability of rodent Sertoli cell monolayers” value is on record as “increased the permeability”. In addition, in the series with rat Sertoli cell TJs (in vivo, and in vitro at the 5 and 10 μM concentration), the “effect on Sertoli cell TJs” value was “damage rat Sertoli cell TJs”.
